Here are results for 1 molecule from patent publication US20240307283A1, “COMPOSITIONS AND METHODS FOR DECREASING PIGMENTATION” (The General Hospital Corporation, priority 2021, published 2024).

For data set [1], the system named is primary human melanocytes. Put plainly: Intracellular melanin content of primary human melanocytes with NNT inhibitors. The format is cell-based. Conditions: FIG. 10D. From the text: Primary human melanocytes were isolated from normal discarded foreskins and were established in TIVA medium as described previously (Khaled et al., 2010) or in Medium 254 (Life Technologies, #M254500) (Allouche et al., 2015). Human melanoma cell line UACC257 (sex unspecified) was obtained from the National Cancer Institute (NCI), Frederick Cancer Division of Cancer Treatment and Diagnosis (DCTD) Tumor Cell Line Repository. SK-MEL-30 ([…]) human melanoma cell line was from Memorial Sloan Kettering Cancer Center. Both melanoma cell lines have been authenticated by our lab using ATCC's STR profiling service. UACC257 and SK-MEL-30 cells were cultured in DMEM and RPMI medium (Life Technologies, #11875119) respectively, supplemented with 10% fetal bovine serum and 1% penicillin/streptomycin/L-glutamine in a humidified atmosphere of 95% air and 5% CO2 at 37° C.
In vitro culture with NNT inhibitors: 2,3-Butanedione 97% (2,3 BD) (Sigma Aldrich, #B85307) (1 μM, 10 μM, 100 μM, 2 mM), N,N-Dicyclohexylcarbodiimide (DCC) (Sigma Aldrich, #D80002) (1 mM, 2 mM, 10 mM), and Palmitoyl coenzyme A lithium salt (Sigma Aldrich, #P9716) (10 μM, 2 mM) were reconstituted with DMSO (American Type Culture Collection, 4-X).
Melanin quantification: Equal numbers of cells were plated in 6-well plates. The cells were then harvested 72-96 hours post siRNA or NNT inhibitors compounds, as indicated in the legends, pelleted, washed in PBS and counted. 10^6 cells were used for measurement of protein concentration with the Pierce BCA protein assay (Thermo Fisher Scientific, #23225) and 10^6 cells were resuspended in 60 μl of 1 N NaOH solution and incubated at 60° C. for 2 h or until the melanin was completely dissolved. After cooling down to room temperature, samples were centrifuged at 500×g for 10 min and the supernatants were loaded onto a 96-well plate. The melanin content was determined by measuring the absorbance at 405 nm on an Envision plate reader, compared with a melanin standard (0 to 50 μg/ml; Sigma Aldrich, #M8631). Melanin content was expressed as micrograms per milligram of protein.

For another data set, the system named is zebrafish melanocytes. The data set can be described thus: Chemical treatment of zebrafish, melanocytic brightness. It counts as in vivo. Conditions: 24 hours, 100 μM 2,3BD or 50 μM DCC. How it is done:
Wildtype Tübingen zebrafish were placed in a 24 well plate at 72 hours post-fertilization, with 10 larvae per well for a total twenty larvae per condition. Larvae were treated for 24 hours with either 2,3BD (1 μM, 10 μM, 100 μM, 1 mM; Sigma Aldrich, #B85307), DCC (1 μM, 10 μM, 50 μM, 100 μM; Sigma Aldrich, #D80002), or DMSO (1:500) in E3 embryo medium. At 4 days post fertilization, larvae were imaged using a Nikon SMZ18 Stereomicroscope. Melanocytes from at least 5 zebrafish embryos of each group for each experiment were analyzed using the FIJI software enabling pixel-based color quantification.

In a further data set the test system is primary melanocytes. The data set can be described thus: Cell viability of primary melanocytes, different doses. The format is cell-based, human. Conditions: FIG. 10C. How it is done:
Cell viability assay: Human melanoma cell lines and isolated primary cultured human melanocytes were propagated and tested in early passage (Passages 7 to 9). The effects of NNT inhibitors (2,3BD, DCC, and Palmitoyl coenzyme A lithium salt) on cell viability were evaluated by the CellTiter-Glo Luminescent Cell Viability Assay (Promega, #G7570) and measurement of luminescence was performed on an EnVision 2104 Multilabel Reader (PerkinElmer). Human melanoma cell lines and primary melanocytes were plated on 96-well white plates (10,000 cells/well) and were treated with the NNT inhibitors at the indicated concentrations for 24 h.

The next data set relates to human skin explants. The data set can be described thus: Pigmentation of human skin explants with topical NNT inhibitors.
A further data set deals with human skin. The data set can be described thus: UVB-induced DNA damage (CPD, γ-H2AX) in human skin. It counts as cell-based. Conditions: 50 mM for 5 days. How it is done:
Skin samples considered surgical waste were obtained de-identified from healthy donors (IRB #2013P000093) undergoing reconstructive surgery, according to institutional regulations. Full thickness human abdominal skin explants were cultured in petri dishes with a solid phase and liquid phase phenol red free DMEM medium containing 20% penicillin/streptomycin/glutamine, 5% fungizone (Gibco), and 10% fetal bovine serum. Compounds were applied strictly on top of the explants, making sure no drip occurred into the underlying media. For UV irradiation experiments, a UV lamp (UV Products) was used at 1000 mJ/cm^2 UVB. For immunofluorescence, paraffin sections were deparaffinized by xylene and rehydrated gradually with ethanol to distilled water. Sections were submerged in 0.01 M citrate buffer and boiled for 10 min for retrieval of antigen. The sections were washed with TBST (0.1% Tween 20) and blocked with protein blocking solution (Agilent, #X090930-2) for 1 h at room temperature before application of primary antibody [1:100 diluted in Antibody Diluent (DAKO, #S3022)] and incubation overnight at 4° C. The following day, sections were washed with TBST three times and incubated with secondary antibody Alexa Fluor 647 goat anti-mouse IgG (G+L) (ThermoFisher Scientific, #A-21236), Alexa Fluor 594 F(ab)2 fragment of goat anti-rabbit IgG (G+L) (ThermoFisher Scientific, #A-11072), or Alexa Fluor 555 goat anti-rabbit IgG (ThermoFisher Scientific, #A-21428). After washing, the tissue sections were cover-slipped with mounting medium (SlowFade® Gold Antifade Reagent with DAPI, ThermoFisher Scientific, #S36939). MaxBlock Autofluorescence Reducing Reagent Kit (MaxVision Biosciences, #MB-L) was used to quench skin tissue autofluorescence according to the reagent instructions. […]

As for `CC(=O)C(C)=O` [2,3BD, 2,3-Butanedione], in data set [1] (2.3 BD 2 mM for 72 hours), the intracellular melanin content entry is on record as “significantly increased the intracellular melanin content”. Further, the “melanin on simultaneous treatment with siNNT” value in data set [1] (siNNT plus 2,3 BD) is “did not further increase the melanin”. In addition, the “darkening of zebrafish embryos (melanocytic brightness)” value in the data set with zebrafish melanocytes is on record as “significant darkening”. Besides, in the data set with primary melanocytes (different doses, relative to vehicle), the cell viability result is “no impacts on cell viability”. Moreover, the in vitro toxicity entry with primary melanocytes (doses up, primary melanocytes) is on record as “no significant toxicity”. In the data set with human skin explants (2,3BD treated skin, FIGS. 3Ei and 10F), the “melanin by Fontana-Masson staining” value is recorded as “increased melanin”. Further, the “cell damage or inflammation by H&E staining” value in the data set on human skin explants (FIG. 3Eii) was “no obvious cell damage or inflammation”. Besides, the skin pigmentation entry is “strong induction of pigmentation” in the data set on human skin explants (abdominal skin, phototype 1-2, single topical treatment 1M or 11M, after 5 days) and “significantly increased pigmentation” in the data set on human skin explants (daily application of 50 mM, skin type 3-4, after 5 days). Further, in the data set on human skin, the “toxicity by γ-H2AX” value is “non-toxic”. In addition, the “UVB-induced CPD formation” value in the data set on human skin (skin type 2-3, then 1000 mJ/cm^2 UVB) is given as “protected against formation of UVB-induced CPD”. Besides, the “UVB-induced γ-H2AX induction” value with human skin (then UVB) is recorded as “could protect human skin from UVB-induced γ-H2AX induction”.
